{"source": "paper PMC11091888", "about": "“Evaluation of Fusobacterium nucleatum Enoyl-ACP Reductase (FabK) as a Narrow-Spectrum Drug Target” (ACS Infectious Diseases, 2024)", "key": {"[1]": {"assay": "Cytotoxicity against HCT116 cells (resazurin viability)", "format": "cell-based", "conditions": "human, HCT116 colorectal carcinoma cells, maximum tested concentration 100 μg/mL", "procedure": "This was done as described[36] using colorectal carcinoma HCT116 and Vero epithelial cells cultured at 37 °C in 5% CO2 in Dulbecco’s modified Eagle’s medium (DMEM) with 4.5 g/L glucose and L-glutamine. The medium was supplemented with 10% v/v FetalGro (Rocky Mountain Biologicals). Approximately 25,000/well were aliquoted into black 96-well plates (Greiner Bio-One) and incubated overnight, before being resuspended in DMEM supplemented with 20% Gibco KnockOut Serum Replacement (Thermo Fisher Scientific). […] Cell viability was analyzed using resazurin as described.[36]"}, "[2]": {"test_system": "F. nucleatum 23726", "assay": "Growth in FAS-II inhibitor with or without exogenous fatty acids", "format": "cell-based, Fusobacterium nucleatum", "conditions": "fatty acid mixture of Table S2", "procedure": "(§1) To plates containing twofold serial dilutions of compounds, exponential phase cultures were added to a final OD600nm of 0.1. Plates containing F. nucleatum in Columbia broth were incubated at 37 °C inside of a Tecan Infinite 200 Pro, which was inside an anaerobic chamber; growth kinetics for Streptococcus spp. in brain heart infusion broth were done aerobically in the same Tecan instrument."}, "[3]": {"test_system": "S. pyogenes 19615", "assay": "Growth in FAS-II inhibitor with or without exogenous fatty acids", "format": "cell-based, Streptococcus pyogenes", "conditions": "fatty acid mixture of Table S2", "procedure": "as §1"}, "[4]": {"test_system": "E. faecalis FA2–2ΔfabK", "assay": "MIC against E. faecalis FA2-2 fabI+ (ΔfabK, possesses only FabI)", "format": "cell-based, Enterococcus faecalis", "procedure": "(§2) Compounds were twofold serially diluted (100–0.2 μg/mL) across a 96-well plate in 100 μL of media used for the specific organism (Table S4). For anaerobes, plates were incubated anaerobically at 37 °C for 1 h and then inoculated with approximately 10^5 to 10^6 CFU/well. Plates were incubated at 37 °C for up to 48 h, and MICs were read by visual inspection."}, "[5]": {"test_system": "Streptococcus sp. CMW7705B", "assay": "MIC, digestive tract panel", "format": "cell-based", "conditions": "ENR FabK", "procedure": "as §2"}, "[6]": {"test_system": "Bacteroides ovatus", "assay": "MIC, digestive tract panel", "format": "cell-based", "conditions": "ENR FabI/FabK", "procedure": "as §2"}, "[7]": {"test_system": "F. periodonticum 33693", "assay": "MIC, digestive tract panel", "format": "cell-based", "conditions": "ENR FabK", "procedure": "as §2"}, "[8]": {"test_system": "F. periodonticum 2_1_31", "assay": "MIC, digestive tract panel", "format": "cell-based", "conditions": "ENR FabK", "procedure": "as §2"}, "[9]": {"test_system": "Streptococcus salivarius", "assay": "MIC, digestive tract panel", "format": "cell-based", "conditions": "ENR FabK", "procedure": "as §2"}, "[10]": {"test_system": "P. gingivalis F0566", "assay": "MIC, digestive tract panel", "format": "cell-based", "conditions": "Porphyromonas gingivalis, ENR FabK", "procedure": "as §2"}, "[11]": {"test_system": "Streptococcus mitis", "assay": "MIC, digestive tract panel", "format": "cell-based", "conditions": "ENR FabK", "procedure": "as §2"}, "[12]": {"test_system": "Streptococcus pyogenes", "assay": "MIC, digestive tract panel", "format": "cell-based", "conditions": "ENR FabK", "procedure": "as §2"}, "[13]": {"test_system": "Actinomyces F0386", "assay": "MIC, digestive tract panel", "format": "cell-based", "conditions": "Type I FAS", "procedure": "as §2"}, "[14]": {"test_system": "P. gingivalis F0569", "assay": "MIC, digestive tract panel", "format": "cell-based", "conditions": "Porphyromonas gingivalis", "procedure": "as §2"}, "[15]": {"test_system": "Streptococcus sp. SPAR10", "assay": "MIC, digestive tract panel", "format": "cell-based", "conditions": "ENR FabK", "procedure": "as §2"}, "[16]": {"test_system": "Propionibacterium acidifaciens", "assay": "MIC, digestive tract panel", "format": "cell-based", "conditions": "ENR FabI", "procedure": "as §2"}, "[17]": {"test_system": "Streptococcus downei", "assay": "MIC, digestive tract panel", "format": "cell-based", "conditions": "ENR FabK", "procedure": "as §2"}, "[18]": {"test_system": "P. gingivalis 33277", "assay": "MIC, digestive tract panel", "format": "cell-based", "conditions": "Porphyromonas gingivalis, ENR FabK", "procedure": "as §2"}, "[19]": {"test_system": "Prevotella denticola", "assay": "MIC, digestive tract panel", "format": "cell-based", "conditions": "ENR FabI", "procedure": "as §2"}, "[20]": {"test_system": "Bifidobacterium breve", "assay": "MIC, digestive tract panel", "format": "cell-based", "conditions": "Type I FAS", "procedure": "as §2"}, "[21]": {"test_system": "F. necrophorum 25286", "assay": "MIC, digestive tract panel", "format": "cell-based", "conditions": "Fusobacterium necrophorum, ENR FabK", "procedure": "as §2"}, "[22]": {"test_system": "P. gingivalis F0185", "assay": "MIC, digestive tract panel", "format": "cell-based", "conditions": "Porphyromonas gingivalis, ENR FabK", "procedure": "as §2"}, "[23]": {"test_system": "F. vincentii 49256", "assay": "MIC, digestive tract panel", "format": "cell-based", "conditions": "ENR FabK", "procedure": "as §2"}, "[24]": {"test_system": "Clostridium sp. MSTE9", "assay": "MIC, digestive tract panel", "format": "cell-based", "conditions": "ENR FabK", "procedure": "as §2"}, "[25]": {"test_system": "Streptococcus sanguinis", "assay": "MIC, digestive tract panel", "format": "cell-based", "conditions": "ENR FabK", "procedure": "as §2"}, "[26]": {"test_system": "F. nucleatum 25586", "assay": "MIC, digestive tract panel", "format": "cell-based", "conditions": "Fusobacterium nucleatum, ENR FabK", "procedure": "as §2"}, "[27]": {"test_system": "Streptococci", "assay": "MIC, all tested Streptococci", "format": "cell-based", "conditions": "text summary of Table 4; read-out: MICs against all tested Streptococci", "procedure": "as §2"}}, "note": "“And” between values parts separate entries of the source, which are not always exact repeats. Identical values can stand only once. “Also recorded” adds a separate entry of the source. Like-named read-outs stand apart in the source and are kept apart here.", "data": [{"molecule": "CS(=O)(=O)c1ccc2nc(NC(=O)NCc3nc(-c4ccc(Br)cc4)c[nH]3)sc2c1", "note": "[Compound 681, 1-((4-(4-bromophenyl)-1H-imidazole-2-yl)methyl)-3-(6-(methylsulfonyl)benzo[d]thiazol-2-yl)urea]", "values": [{"measurement": "IC50 at 24 h", "setting": "[1]", "result": "> 100", "unit": "µg/mL"}, {"measurement": "Effect of exogenous fatty acids on growth inhibition of F. nucleatum", "setting": "[2]", "result": "did not attenuate; also recorded: did not rescue"}, {"measurement": "Increase in biomass (OD600nm) in the presence of inhibitor and exogenous fatty acids", "setting": "[3]", "result": "4–5 fold"}, {"measurement": "MIC Ef fabI+", "setting": "[4]; E. faecalis FA2-2 ΔfabK, possesses only FabI", "result": "100 µg/mL and >100 µg/mL"}, {"measurement": "MIC", "setting": "[4]; Enterococcus faecalis, read-out: MIC Ef fabI+, E. faecalis FA2-2 ΔfabK, possesses only FabI", "result": "> 100", "unit": "µg/mL"}, {"measurement": "MIC", "setting": "[5]", "result": "< 1.6", "unit": "µg/mL"}, {"measurement": "MIC", "setting": "[6]", "result": ">100", "unit": "µg/mL"}, {"measurement": "MIC", "setting": "[6]; read-out: MIC", "result": "> 100", "unit": "µg/mL"}, {"measurement": "MIC", "setting": "[7]", "result": 0.8, "unit": "µg/mL"}, {"measurement": "MIC", "setting": "[8]", "result": 0.8, "unit": "µg/mL"}, {"measurement": "MIC", "setting": "[9]", "result": "< 1.6", "unit": "µg/mL"}, {"measurement": "MIC", "setting": "[10]", "result": 3.1, "unit": "µg/mL"}, {"measurement": "MIC", "setting": "[11]", "result": "< 1.6", "unit": "µg/mL"}, {"measurement": "MIC", "setting": "[12]", "result": "< 1.6", "unit": "µg/mL"}, {"measurement": "MIC", "setting": "[13]", "result": "> 100", "unit": "µg/mL"}, {"measurement": "MIC", "setting": "[14]", "result": "> 100", "unit": "µg/mL"}, {"measurement": "MIC", "setting": "[15]", "result": "< 1.6", "unit": "µg/mL"}, {"measurement": "MIC", "setting": "[16]", "result": 6.3, "unit": "µg/mL"}, {"measurement": "MIC", "setting": "[17]", "result": "< 1.6", "unit": "µg/mL"}, {"measurement": "MIC", "setting": "[18]", "result": "> 100", "unit": "µg/mL"}, {"measurement": "MIC", "setting": "[19]", "result": "> 100", "unit": "µg/mL"}, {"measurement": "MIC", "setting": "[20]", "result": ">100", "unit": "µg/mL"}, {"measurement": "MIC", "setting": "[20]; read-out: MIC", "result": "> 100", "unit": "µg/mL"}, {"measurement": "MIC", "setting": "[21]", "result": "6.3 to 12.5", "unit": "µg/mL"}, {"measurement": "MIC", "setting": "[22]", "result": 6.3, "unit": "µg/mL"}, {"measurement": "MIC", "setting": "[23]", "result": 1.6, "unit": "µg/mL"}, {"measurement": "MIC", "setting": "[24]", "result": "> 100", "unit": "µg/mL"}, {"measurement": "MIC", "setting": "[25]", "result": "< 1.6", "unit": "µg/mL"}, {"measurement": "MIC", "setting": "[26]", "result": 0.8, "unit": "µg/mL"}, {"measurement": "MIC", "setting": "[27]", "result": "< 1.6", "unit": "µg/mL"}]}]}
